The text below walks through data of publication PMC12275099, “VX-445 (elexacaftor) inhibits chloride secretion across human bronchial epithelial cells by directly blocking KCa3.1 channels” (PNAS Nexus, 2025).

One assay concerns the target T1, KCa3.1 (Homo sapiens, UniProt O15554).
T1 construct: expressed in transfected cells
The assay can be described thus: Excised inside-out patch-clamp on HEK-KCa3.1. It counts as biochemical. The procedure:
Our Isc results are consistent with VX-445 inhibiting KCa3.1 in HBEs. To directly assess this possibility, we initially carried out whole-cell patch-clamp studies on undifferentiated HBEs. […] Upon application of 10 µM VX-445, a majority of this current was inhibited, averaging 87 ± 4% (n = 3, P < 0.005; Fig. 3B). A summary of the current–voltage (I–V) relationship—normalized to cell capacitance—is shown in Fig. 3C, which also includes the whole-cell I–V in the presence of Tram-34. […] To ensure isolation of KCa3.1 currents and to more fully characterize this VX-445-dependent inhibition of KCa3.1, we utilized HEK cells heterologously expressing KCa3.1 (HEK-KCa3.1). Initially, we confirmed our results from HBEs, using whole-cell recordings, as above. […] In seven experiments, this inhibition averaged 58 ± 7% (P < 0.005). […] It is well recognized that drugs are carried to their targets in the blood bound to albumin, which ranges from 3.4 to 5.4%. Thus, we determined whether VX-445 (10 µM) would inhibit KCa3.1 expressed in HEK cells in the presence of 3.4% albumin. In four experiments, VX-445 inhibited an average of 51 ± 17% of the whole-cell KCa3.1 current, which is not different from that observed in the absence of albumin. To confirm the direct effect of VX-445 on KCa3.1, we utilized the excised, inside-out patch-clamp technique. The patch was then exposed to DCEBIO (100 µM) to further activate the channels ([34–37])—analogous to our Isc studies in HBEs. […] In three experiments, VX-445 inhibited an average of 63 ± 6% of the KCa3.1 current. Based on these experiments, we determined the apparent inhibitory constant, Ki for VX-445. For these experiments, patches were excised into saturating Ca^2+ (3 µM) to ensure maximal KCa3.1 activation. These studies were carried out in the absence of DCEBIO to eliminate the possibility that the inhibition observed was due to competition for the DCEBIO-binding site.
(§1) HEK cells stably expressing KCa3.1 (IK1, SK4), KCa2.3 (SK3), and KCa2.2 (SK2) were generated and cultured as previously described by us ([37], [66–71]).
(§2) HEK cells expressing the channel of interest were plated onto poly-L-lysine-coated glass coverslips 1–2 days prior to patch-clamp analysis. Electrophysiological recordings in the excised, inside-out, and whole-cell patch-clamp configurations were performed as recently described ([14]). For excised patch-clamp recordings, the pipette solution contained (in mM): 140 K-gluconate, 5 KCl, 1 CaCl2, 1 MgCl2, and 10 HEPES. The pH was adjusted to 7.2 with KOH. The bath solution contained (in mM): 145 K-gluconate, 5 KCl, 1.3 MgCl2, 10 HEPES, and 1 EGTA. Sufficient CaCl2 was added to obtain the desired free Ca^2+ concentration at a pH of 7.2 (adjusted with KOH). When recording KCa3.1 channels, ATP (300 µM) was added to the bath to diminish channel rundown ([73]). All recordings were carried out at a voltage of −100 mV, referenced to the extracellular compartment, as is standard. The apparent Ki and Hill coefficient for each CFTR corrector on KCa3.1, KCa2.3, and KCa2.2 were determined during a continuous recording by step-wise addition of increasing concentrations of compound and fitting the resultant relative remaining current to a Hill equation (Prism v. 10.1.0). The zero current level was determined by the addition of a 0 Ca^2+ solution (zero-added Ca^2+ plus 1 mM EGTA) at the end of the experiment. In the case of KCa3.1, TRAM-34, a known inhibitor of KCa3.1 ([45]), was used to confirm expression of the channel. For whole-cell experiments, pipettes contained (in mM): 145 K-gluconate, 10 EGTA, 7.5 CaCl2, 2 MgCl2, 3 mM NaATP, and 10 HEPES. The bath solution contained (in mM): 140 K-gluconate, 5 KCl, 1.0 MgCl2, 10 HEPES, and 2 CaCl2. Current–voltage relationships were determined by stepping from a holding potential of −80 mV to +80 mV in 20 mV increments for 400 ms. […]

Another assay addresses KCa2.3 (Homo sapiens, UniProt Q9UGI6). The assay can be described thus: Excised inside-out patch-clamp on HEK cells expressing KCa2.3. Format: biochemical. On the procedure: (§3) As above, we performed excised patch-clamp recordings on HEK cells heterologously expressing KCa2.3 or KCa2.2, in order to assess the activity of C2 CFTR corrector compounds. […] In contrast, the subsequent addition of 10 µM VX-659 yielded an almost complete inhibition of KCa2.3 currents, averaging 91 ± 3% (n = 4).
as §1
as §2, with “In the case of KCa3.1, TRAM-34, a known inhibitor of KCa3.1 ([45]), was used to confirm expression of the channel. For whole-cell experiments, pipettes contained (in mM): 145 K-gluconate, 10 EGTA, 7.5 CaCl2, 2 MgCl2, 3 mM NaATP, and 10 HEPES. The bath solution contained (in mM): 140 K-gluconate, 5 KCl, 1.0 MgCl2, 10 HEPES, and 2 CaCl2.” left out, “ms. The middle 300 ms of each trace was selected to avoid any influence of capacitive transients, and average currents were calculated for each voltage via the I–V tool in Clampfit.” for “ms.”

The next assay deals with KCa2.2 (Rattus norvegicus, UniProt P70604). Briefly: Excised inside-out patch-clamp on HEK cells expressing KCa2.2. Format: biochemical. As to conditions: 1 µM free Ca2+. The procedure:
as §3, §1
HEK cells expressing the channel of interest were plated onto poly-L-lysine-coated glass coverslips 1–2 days prior to patch-clamp analysis. […] The apparent Ki and Hill coefficient for each CFTR corrector on KCa3.1, KCa2.3, and KCa2.2 were determined during a continuous recording by step-wise addition of increasing concentrations of compound and fitting the resultant relative remaining current to a Hill equation (Prism v. 10.1.0). The zero current level was determined by the addition of a 0 Ca^2+ solution (zero-added Ca^2+ plus 1 mM EGTA) at the end of the experiment. […] Current–voltage relationships were determined by stepping from a holding potential of −80 mV to +80 mV in 20 mV increments for 400 ms. The middle 300 ms of each trace was selected to avoid any influence of capacitive transients, and average currents were calculated for each voltage via the I–V tool in Clampfit. […]

In assay [1] the test system is BKCa (KCa1.1, KCNMA1) channels. Also noted: method as in PMID 38954478. The note with it: primary HBEs and HEK cells heterologously expressing the channel; cited from earlier work.

“And” between values parts separate entries of the source, which are not always exact repeats. Equal entries are not always repeated.

Sequence of KCa2.3 (Q9UGI6 whole entry): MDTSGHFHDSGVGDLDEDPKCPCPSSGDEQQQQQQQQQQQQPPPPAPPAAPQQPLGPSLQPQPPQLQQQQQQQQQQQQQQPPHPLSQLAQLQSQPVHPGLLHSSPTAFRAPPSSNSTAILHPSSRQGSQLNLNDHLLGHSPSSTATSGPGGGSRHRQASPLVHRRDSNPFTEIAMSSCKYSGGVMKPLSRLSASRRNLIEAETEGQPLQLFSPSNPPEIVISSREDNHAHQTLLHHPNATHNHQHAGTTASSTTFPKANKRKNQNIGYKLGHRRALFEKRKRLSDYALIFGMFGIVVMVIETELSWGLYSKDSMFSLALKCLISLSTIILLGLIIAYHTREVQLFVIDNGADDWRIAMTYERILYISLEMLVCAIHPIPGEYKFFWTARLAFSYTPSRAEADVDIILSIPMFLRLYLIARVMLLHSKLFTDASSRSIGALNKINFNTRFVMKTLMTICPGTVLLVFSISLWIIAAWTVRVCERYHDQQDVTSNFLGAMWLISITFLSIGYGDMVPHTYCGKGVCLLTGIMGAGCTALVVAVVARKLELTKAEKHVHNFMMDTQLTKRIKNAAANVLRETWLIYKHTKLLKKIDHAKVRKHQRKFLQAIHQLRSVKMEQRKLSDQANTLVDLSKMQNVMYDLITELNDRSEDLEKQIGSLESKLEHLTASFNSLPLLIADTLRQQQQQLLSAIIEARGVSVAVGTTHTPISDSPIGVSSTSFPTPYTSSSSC
Sequence of KCa2.2 (P70604 whole entry): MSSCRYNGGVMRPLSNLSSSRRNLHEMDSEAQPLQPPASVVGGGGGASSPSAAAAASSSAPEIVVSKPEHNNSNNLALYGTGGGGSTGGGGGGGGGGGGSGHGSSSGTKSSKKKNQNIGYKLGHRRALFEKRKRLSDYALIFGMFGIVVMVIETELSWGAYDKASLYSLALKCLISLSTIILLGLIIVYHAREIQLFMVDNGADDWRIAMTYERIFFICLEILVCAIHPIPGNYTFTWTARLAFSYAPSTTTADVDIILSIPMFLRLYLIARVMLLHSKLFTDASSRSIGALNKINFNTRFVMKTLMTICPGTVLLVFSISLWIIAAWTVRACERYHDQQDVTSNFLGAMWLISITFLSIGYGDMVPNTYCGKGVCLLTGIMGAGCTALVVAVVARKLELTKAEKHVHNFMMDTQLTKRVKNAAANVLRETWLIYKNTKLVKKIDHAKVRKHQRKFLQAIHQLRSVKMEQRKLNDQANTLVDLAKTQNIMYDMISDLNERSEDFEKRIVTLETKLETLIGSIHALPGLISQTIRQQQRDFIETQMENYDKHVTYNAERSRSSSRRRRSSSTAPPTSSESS

As for `C[C@@H]1CN(c2nc(-n3ccc(OCCC4(C(F)(F)F)CC4)n3)ccc2C(=O)NS(=O)(=O)c2ccccc2)C(C)(C)C1` [VX-659, bamocaftor], the Hill coefficient at KCa3.1 (3 µM free Ca2+, absence of DCEBIO) is 1.8; on KCa2.3 (1 µM free Ca2+) it was 1.9 and 1.3; at KCa2.2 it was 1.6 and 2.1. For the same compound, the Ki on KCa3.1 (3 µM free Ca2+, absence of DCEBIO, Hill fit, n = 4, read-out: apparent Ki) is 890 nM and 900 nM. The inhibition at 10 µM was found to be 98 ± 1% at KCa3.1 (10 µM compound after DCEBIO 100 µM, 1 µM free Ca2+, three experiments, read-out: inhibition of KCa3.1 current in excised patch) and 91 ± 3% on KCa2.3 (read-out: inhibition of KCa2.3 currents). In addition, at KCa3.1 (KCa3.1 versus KCa2.2 and KCa2.3), the “selectivity among KCNN gene family members” value is recorded as “inhibits all members of the KCNN gene family with a similar affinity”. In addition, on KCa3.1 ([VX-659] 0.3, Fig 4G single experiments), the relative remaining current is 89 and 100 and 78 and 88. Further, the “effect on BKCa” value in assay [1] was “weakly potentiates”.
